Assay results as given in patent US12209102B2, “Heterocyclic compounds and uses thereof” (Kumquat Biosciences Inc., priority 2022, dated 2025).
pIC50: −log10 of the molar value.

Experiments:
Format in all cases: biochemical
K-Ras G12S = target: T1, K-Ras G12S (Homo sapiens, UniProt P01116, G12S); test: HTRF resonance energy transfer assay, K-Ras G12S / SOS1 interaction; settings: HTRF assay of Example 5; read-out: IC50 against K-Ras G12S
T1 construct: made in house; host or cells: E. coli BL21 (DE3)
T1 sequence (P01116 1-188 isoform P01116-2 G12S): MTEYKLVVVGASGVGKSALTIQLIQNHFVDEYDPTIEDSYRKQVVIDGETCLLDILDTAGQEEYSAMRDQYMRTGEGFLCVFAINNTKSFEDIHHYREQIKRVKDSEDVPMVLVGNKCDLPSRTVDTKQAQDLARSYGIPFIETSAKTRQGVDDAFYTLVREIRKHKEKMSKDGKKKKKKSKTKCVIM
Procedure, shortened: (§1)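 Read-out: HTRF 665/620 nm ratio (excitation 337 nm) after roughly 10 min or longer incubation, used to derive IC50. Donor anti-GST-Eu on GST-K-Ras; acceptor anti-6His-XL665 on His-hSOS1. Duplicate dose series from 10 μM down to 0.01 μM.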

K-Ras WT = target: T2, K-Ras WT (Homo sapiens, UniProt P01116); test: HTRF resonance energy transfer assay, K-Ras WT / SOS1 interaction; settings: HTRF assay of Example 5; read-out: IC50 against K-Ras WT
T2 construct: made in house; host or cells: E. coli BL21 (DE3)
T2 sequence (P01116 1-188 isoform P01116-2): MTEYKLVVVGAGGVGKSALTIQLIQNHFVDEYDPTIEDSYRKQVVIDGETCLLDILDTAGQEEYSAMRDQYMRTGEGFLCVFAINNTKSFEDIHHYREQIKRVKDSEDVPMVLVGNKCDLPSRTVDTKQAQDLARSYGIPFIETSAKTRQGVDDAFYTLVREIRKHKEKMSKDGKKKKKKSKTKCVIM
Procedure, shortened: as §1

K-Ras G12D = target: T3, K-Ras G12D (Homo sapiens, UniProt P01116, G12D); test: HTRF resonance energy transfer assay, K-Ras G12D / SOS1 interaction; settings: HTRF assay of Example 5; read-out: IC50 against K-Ras G12D
T3 construct: made in house; host or cells: E. coli BL21 (DE3)
T3 sequence (P01116 1-188 isoform P01116-2 G12D): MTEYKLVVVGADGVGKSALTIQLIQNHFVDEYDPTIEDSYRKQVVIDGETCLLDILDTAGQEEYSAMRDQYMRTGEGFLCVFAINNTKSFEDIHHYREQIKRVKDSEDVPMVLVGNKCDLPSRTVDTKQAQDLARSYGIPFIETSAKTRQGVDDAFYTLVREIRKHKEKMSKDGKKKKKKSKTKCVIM
Procedure, shortened: as §1

K-Ras G12V = target: T4, K-Ras G12V (Homo sapiens, UniProt P01116, G12V); test: HTRF resonance energy transfer assay, K-Ras G12V / SOS1 interaction; settings: HTRF assay of Example 5; read-out: IC50 against K-Ras G12V
T4 construct: made in house; host or cells: E. coli BL21 (DE3)
T4 sequence (P01116 1-188 isoform P01116-2 G12V): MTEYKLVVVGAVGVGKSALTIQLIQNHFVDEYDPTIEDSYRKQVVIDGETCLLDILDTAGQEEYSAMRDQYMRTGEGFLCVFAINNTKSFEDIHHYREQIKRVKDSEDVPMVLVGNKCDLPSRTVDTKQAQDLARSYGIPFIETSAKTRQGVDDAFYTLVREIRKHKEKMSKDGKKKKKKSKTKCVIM
Procedure, shortened: as §1

Row | pIC50 (K-Ras G12S) | pIC50 (K-Ras WT) | pIC50 (K-Ras G12D) | pIC50 (K-Ras G12V) | SMILES
1 | > 7.00 | > 7.00 | > 7.00 | > 7.00 | N#Cc1c(N)sc2c(F)ccc(-c3c(Cl)c4c5c(nc(OC[C@@]67CCCN6C[C@H](F)C7)nc5c3F)N(C3CCOC3)C(C3(C#N)CC3)CO4)c12 (stereo partly drawn) [Compound 913, 2-amino-4-(8-chloro-5-(1-cyanocyclopropyl)-10-fluoro-2-(((2R,7aS)-2-fluorotetrahydro-1H-pyrrolizin-7a(5H)-yl)methoxy)-4-(tetrahydrofuran-3-yl)-5,6-dihydro-4H-[1,4]oxazepino[5,6,7-de]quinazolin-9-yl)-7-fluorobenzo[b]thiophene-3-carbonitrile]
2 | > 7.00 | > 7.00 | > 7.00 | > 7.00 | N#Cc1c(N)sc2c(F)ccc(-c3c(Cl)c4c5c(nc(OC[C@@]67CCCN6C[C@H](F)C7)nc5c3F)N(CC(F)F)C(CO)CO4)c12 (stereo partly drawn) [Compound 840, 2-amino-4-(8-chloro-4-(2,2-difluoroethyl)-10-fluoro-2-(((2R,7aS)-2-fluorotetrahydro-1H-pyrrolizin-7a(5H)-yl)methoxy)-5-(hydroxymethyl)-5,6-dihydro-4H-[1,4]oxazepino[5,6,7-de]quinazolin-9-yl)-7-fluorobenzo[b]thiophene-3-carbonitrile]
3 | > 7.00 | > 7.00 | > 7.00 | > 7.00 | CS(=O)(=O)N1CC1C(=O)NCCN1CCOc2c(Cl)c(-c3ccc(F)c4sc(N)c(C#N)c34)c(F)c3nc(OC[C@@]45CCCN4C[C@H](F)C5)nc1c23 (stereo partly drawn) [Compound 1077, N-(2-(9-(2-amino-3-cyano-7-fluorobenzo[b]thiophen-4-yl)-8-chloro-10-fluoro-2-(((2R,7aS)-2-fluorotetrahydro-1H-pyrrolizin-7a(5H)-yl)methoxy)-5,6-dihydro-4H-[1,4]oxazepino[5,6,7-de]quinazolin-4-yl)ethyl)-1-(methylsulfonyl)aziridine-2-carboxamide]
4 | > 7.00 | > 7.00 | > 7.00 | > 7.00 | N#Cc1c(N)sc2c(F)ccc(-c3c(Cl)c4c5c(nc(OC[C@@]67CCCN6C[C@H](F)C7)nc5c3F)N(CC3CC3C#N)CCO4)c12 (stereo partly drawn) [Compound 738, 2-amino-4-(8-chloro-4-((2-cyanocyclopropyl)methyl)-10-fluoro-2-(((2R,7aS)-2-fluorotetrahydro-1H-pyrrolizin-7a(5H)-yl)methoxy)-5,6-dihydro-4H-[1,4]oxazepino[5,6,7-de]quinazolin-9-yl)-7-fluorobenzo[b]thiophene-3-carbonitrile]
5 | > 7.00 | > 7.00 | > 7.00 | > 7.00 | N#Cc1c(N)sc2c(F)ccc(-c3c(Cl)c4c5c(nc(OC[C@@]67CCCN6C[C@H](F)C7)nc5c3F)N(CC(F)F)[C@@H](c3cnco3)CO4)c12 (single isomer, unassigned) [Compound 763]
6 | > 7.00 | > 7.00 | > 7.00 | > 7.00 | CC(=O)C1COc2c(Cl)c(-c3ccc(F)c4sc(N)c(C#N)c34)c(F)c3nc(OC[C@@]45CCCN4C[C@H](F)C5)nc(c23)N1CC(F)F (stereo partly drawn) [Compound 981, 4-(5-acetyl-8-chloro-4-(2,2-difluoroethyl)-10-fluoro-2-(((2R,7aS)-2-fluorotetrahydro-1H-pyrrolizin-7a(5H)-yl)methoxy)-5,6-dihydro-4H-[1,4]oxazepino[5,6,7-de]quinazolin-9-yl)-2-amino-7-fluorobenzo[b]thiophene-3-carbonitrile]
7 | > 7.00 | > 7.00 | > 7.00 | > 7.00 | C#Cc1c(F)ccc2cc(O)cc(-c3nc4c5c(nc(OC[C@@]67CCCN6C[C@H](F)C7)nc5c3F)N(C3CCNC3)CCO4)c12 (stereo partly drawn) [Compound 939, 5-ethynyl-6-fluoro-4-(4-fluoro-2-(((2R,7aS)-2-fluorotetrahydro-1H-pyrrolizin-7a(5H)-yl)methoxy)-10-(pyrrolidin-3-yl)-9,10-dihydro-8H-7-oxa-1,3,6,10-tetraazacyclohepta[de]naphthalen-5-yl)naphthalen-2-ol]
8 | > 7.00 | > 7.00 | > 7.00 | > 7.00 | N#CCC1COc2c(Cl)c(-c3ccc(F)c4sc(N)c(C#N)c34)c(F)c3nc(OC[C@@]45CCCN4C[C@H](F)C5)nc(c23)N1CCCN (stereo partly drawn) [Compound 1029, 2-amino-4-(4-(3-aminopropyl)-8-chloro-5-(cyanomethyl)-10-fluoro-2-(((2R,7aS)-2-fluorotetrahydro-1H-pyrrolizin-7a(5H)-yl)methoxy)-5,6-dihydro-4H-[1,4]oxazepino[5,6,7-de]quinazolin-9-yl)-7-fluorobenzo[b]thiophene-3-carbonitrile]
9 | > 7.00 | > 7.00 | > 7.00 | > 7.00 | N#Cc1c(N)sc2c(F)ccc(-c3c(Cl)c4c5c(nc(OC[C@@]67CCCN6C[C@H](F)C7)nc5c3F)N(CC3(N)CCC3)CCCO4)c12 [Compound 1213, 2-amino-4-(4-((1-aminocyclobutyl)methyl)-9-chloro-11-fluoro-2-(((2R,7aS)-2-fluorotetrahydro-1H-pyrrolizin-7a(5H)-yl)methoxy)-4,5,6,7-tetrahydro-[1,5]oxazocino [4,3,2-de]quinazolin-10-yl)-7-fluorobenzo[b]thiophene-3-carbonitrile]
10 | > 7.00 | > 7.00 | > 7.00 | > 7.00 | N#Cc1c(N)sc2c(F)ccc(-c3c(Cl)c4c5c(nc(OC[C@@]67CCCN6C[C@H](F)C7)nc5c3F)N(CC(F)F)C(C3CNC3)CO4)c12 (stereo partly drawn) [Compound 1131, 2-amino-4-(5-(azetidin-3-yl)-8-chloro-4-(2,2-difluoroethyl)-10-fluoro-2-(((2R,7aS)-2-fluorotetrahydro-1H-pyrrolizin-7a(5H)-yl)methoxy)-5,6-dihydro-4H-[1,4]oxazepino[5,6,7-de]quinazolin-9-yl)-7-fluorobenzo[b]thiophene-3-carbonitrile]
11 | > 7.00 | > 7.00 | > 7.00 | > 7.00 | N#Cc1c(N)sc2c(F)ccc(-c3c(Cl)c4c5c(nc(OC[C@@]67CCCN6C[C@H](F)C7)nc5c3F)N(C3CCCNCC3)CCO4)c12 (stereo partly drawn) [Compound 1059, 2-amino-4-(4-(azepan-4-yl)-8-chloro-10-fluoro-2-(((2R,7aS)-2-fluorotetrahydro-1H-pyrrolizin-7a(5H)-yl)methoxy)-5,6-dihydro-4H-[1,4]oxazepino[5,6,7-de]quinazolin-9-yl)-7-fluorobenzo[b]thiophene-3-carbonitrile]
12 | > 7.00 | > 7.00 | > 7.00 | > 7.00 | C=C[C@H]1COc2c(Cl)c(-c3ccc(F)c4sc(N)c(C#N)c34)c(F)c3nc(OC[C@@]45CCCN4C[C@H](F)C5)nc(c23)N1CCC(F)F (single isomer, unassigned) [Compound 906]
13 | > 7.00 | > 7.00 | > 7.00 | > 7.00 | CNCCCN1CCOc2c(Cl)c(-c3ccc(F)c4sc(N)c(C#N)c34)c(F)c3nc(OC[C@@]45CCCN4C[C@H](F)C5)nc1c23 [Compound 778, 2-amino-4-(8-chloro-10-fluoro-2-(((2R,7aS)-2-fluorotetrahydro-1H-pyrrolizin-7a(5H)-yl)methoxy)-4-(3-(methylamino)propyl)-5,6-dihydro-4H-[1,4]oxazepino[5,6,7-de]quinazolin-9-yl)-7-fluorobenzo[b]thiophene-3-carbonitrile]
14 | > 7.00 | > 7.00 | > 7.00 | > 7.00 | C#Cc1c(F)ccc2cc(O)cc(-c3nc4c5c(nc(OC[C@@]67CCCN6C[C@H](F)C7)nc5c3F)N(C3CCN(C=O)C3)CCO4)c12 (stereo partly drawn) [Compound 1019, 3-(5-(8-ethynyl-7-fluoro-3-hydroxynaphthalen-1-yl)-4-fluoro-2-(((2R,7aS)-2-fluorotetrahydro-1H-pyrrolizin-7a(5H)-yl)methoxy)-8,9-dihydro-10H-7-oxa-1,3,6,10-tetraazacyclohepta[de]naphthalen-10-yl)pyrrolidine-1-carbaldehyde]
15 | > 7.00 | > 7.00 | > 7.00 | > 7.00 | N#Cc1c(N)sc2c(F)ccc(-c3c(Cl)c4c5c(nc(OC[C@@]67CCCN6C[C@H](F)C7)nc5c3F)N(Cc3ccn[nH]3)CCO4)c12 [Compound 1023, 4-(4-((1H-pyrazol-5-yl)methyl)-8-chloro-10-fluoro-2-(((2R,7aS)-2-fluorotetrahydro-1H-pyrrolizin-7a(5H)-yl)methoxy)-5,6-dihydro-4H-[1,4]oxazepino[5,6,7-de]quinazolin-9-yl)-2-amino-7-fluorobenzo[b]thiophene-3-carbonitrile]
16 | > 7.00 | > 7.00 | > 7.00 | > 7.00 | CC(O)C1COc2c(Cl)c(-c3ccc(F)c4sc(N)c(C#N)c34)c(F)c3nc(OC[C@@]45CCCN4C[C@H](F)C5)nc(c23)N1CC1(N(C)C)CCC1 (stereo partly drawn) [Compound 773, 2-amino-4-(8-chloro-4-((1-(dimethylamino)cyclobutyl)methyl)-10-fluoro-2-(((2R,7aS)-2-fluorotetrahydro-1H-pyrrolizin-7a(5H)-yl)methoxy)-5-(1-hydroxyethyl)-5,6-dihydro-4H-[1,4]oxazepino[5,6,7-de]quinazolin-9-yl)-7-fluorobenzo[b]thiophene-3-carbonitrile]
